The experiment is described as follows: Inhibition of ACAT2 (unknown origin).

This passage reports IC50 results from BindingDB's records for PubMed 38701715 (Shaanxi University of Chinese Medicine).

In turn, `COc1ccc([C@@H]2O[C@H](c3ccc(OC(C)C(O)c4ccc5c(c4)COC5)c(OC)c3)[C@H](C)[C@@H]2C)cc1OC` (stereo partly specified) registered an IC50 of 124 µM.
